This test has as its system Human leukemia HL-60 cells endogenously expressing BLT1 and BLT2 receptors. Kind of test: Ca2+ flux assay for LTB4 antagonist assay (HL-60 FLIPR). Type of test: cell-based. The conditions noted are these: retinoic acid induced HL-60 cells, inhibition of LTB4-induced Ca2+ flux, 30 min preincubation; read-out: LTB4 antagonism (HL-60 FLIPR). The method, then: Assay of Compounds for Inhibition of LTB4 Activity
Ca^2+Flux Assay for LTB4 Antagonist Assay
Human leukemia HL-60 cells endogenously expressing BLT1 and BLT2 receptors were cultured in RPMI-1640 medium supplemented with 20% fetal bovine serum, 2 mM glutamine, 100 U/ml penicillin and 100 ug/ml streptomycin.
Seventy two hours prior to experiment cells are counted using ViaCount reagent, centrifuged and resuspended at 2.0×10^5 cells/ml density with the complete growth media containing 1 μM Retinoic Acid (Sigma).
On a day of the experiment loading buffer (Calcium-3 Assay Kit, Molecular Devices) was prepared by dissolving the contents of one vial (Express Kit) into 500 ml Hank's Balanced Salt Solution containing 20 mM HEPES and 5 mM probenecid. Equal volume of the loading buffer was mixed with the replacement buffer (Hank's Balanced Salt Solution containing 20 mM HEPES, 0.05% BSA and 5 mM probenecid). Retinoic Acid induced HL-60 cells were counted using ViaCount reagent, centrifuged and resuspended at 2.0×10^6 cells/ml density with the loading buffer/replacement buffer, dispensed into 384 well black/clear microplates (Falcon) (25 μl/well) and placed in a 37° C./5% CO2 incubator for 1 hour.
During the incubation, test compounds were prepared at 6× the desired concentration in HBSS/20 mM HEPES/0.05% BSA as well as LTB4 (Biomol) was prepared at 2.2× concentration in HBSS/20 mM HEPES/0.5% BSA buffer.
After the incubation, both the cell and compound plates were brought to the FLIPR and 5 μl of the diluted compounds were transferred to the cell plates by the FLIPR. Plates were then incubated for 30 min at room temperature. After the ½ hour incubation, plates were returned to the FLIPR and 25 μl of 2.2×LTB4 was added to the cell plates. During the assay, fluorescence readings were taken simultaneously from all 384 wells of the cell plate every 1.5 seconds. Five readings were taken to establish a stable baseline, then 25 μl (LTB4) of sample was rapidly and simultaneously added to each well of the cell plate. The fluorescence was continuously monitored before, during and after sample addition for a total elapsed time of 100 seconds. Responses (increase in peak fluorescence) in each well following agonist addition was determined. The initial fluorescence reading from each well, prior to ligand stimulation, was used a zero baseline value for the data from that well. The responses are expressed as % inhibition of the neutral control (neural control: wells that received buffer plus DMSO but no test compound).

`O=C(O)CCCOc1cccc(CCCCCCOc2cc(CO)cc(-c3ccc4c(c3)OCO4)c2)c1CCC(=O)O` [Example 1, 4-[3-[6-(3-Benzo[1,3]dioxol-5-yl-5-hydroxymethyl-phenoxy)-hexyl]-2-(2-carboxy-ethyl)-phenoxy]-butyric acid]: the IC50 came out at 3.1 nM.
As for `O=C(O)CCCOc1cccc(CCCCCCOc2cc(CO)cc(-c3ccccc3)c2)c1CCC(=O)O` [Example 2, 4-{2-(2-Carboxy-ethyl)-3-[6-(5-hydroxymethyl-biphenyl-3-yloxy)-hexyl]-phenoxy}-butyric acid], the figure is 24.7 nM; as for `O=C(O)CCCOc1cccc(CCCCCCOc2cc(CO)cc(-c3ccsc3)c2)c1CCC(=O)O` [Example 3, 4-{2-(2-Carboxy-ethyl)-3-[6-(3-hydroxymethyl-5-thiophen-3-yl-phenoxy)-hexyl]-phenoxy}-butyric acid], 62.5 nM.
For `O=C(O)CCCOc1cccc(CCCCCCOc2cc(CO)cc(-c3ccc(F)cc3)c2)c1CCC(=O)O` [Example 4, 4-{2-(2-Carboxy-ethyl)-3-[6-(4′-fluoro-5-hydroxymethyl-biphenyl-3-yloxy)-hexyl]-phenoxy}-butyric acid] the value was 29.6 nM; for `O=C(O)CCCOc1cccc(CCCCCCOc2cc(CO)cc(-c3ccc(Cl)cc3)c2)c1CCC(=O)O` [Example 5, 4-{2-(2-Carboxy-ethyl)-3-[6-(4′-chloro-5-hydroxymethyl-biphenyl-3-yloxy)-hexyl]-phenoxy}-butyric acid], 43.1 nM.
Regarding `O=C(O)CCCOc1cccc(CCCCCCOc2cc(CO)cc(-c3ccc4c(c3)OCCO4)c2)c1CCC(=O)O` [Example 6, 4-(2-(2-Carboxy-ethyl)-3-{6-[3-(2,3-dihydro-benzo[1,4]dioxin-6-yl)-5-hydroxymethylphenoxy]-hexyl}-phenoxy)-butyric acid], the IC50 is 7.39 nM.
As for `CS(=O)(=O)c1ccc(-c2cc(CO)cc(OCCCCCCc3cccc(OCCCC(=O)O)c3CCC(=O)O)c2)cc1` [Example 7, 4-[2-(2-Carboxy-ethyl)-3-[6-(5-hydroxymethyl-4′-methanesulfonyl-biphenyl-3-yloxy)-hexyl]-phenoxy]-butyric acid], the figure is 83.2 nM; as for `COCc1cc(OCCCCCCc2cccc(OCCCC(=O)O)c2CCC(=O)O)cc(-c2ccc3c(c2)OCO3)c1` [Example 8, 4-[3-[6-(3-Benzo[1,3]dioxol-5-yl-5-methoxymethyl-phenoxy)-hexyl]-2-(2-carboxy-ethyl)-phenoxy]-butyric acid], 0.14 nM.
For `COCc1cc(OCCCCCCc2cccc(OCCCC(=O)O)c2CCC(=O)O)cc(-c2ccccc2)c1` [Example 9, 4-{2-(2-Carboxy-ethyl)-3-[6-(5-methoxymethyl-biphenyl-3-yloxy)-hexyl]-phenoxy}-butyric acid] the value was 1.93 nM; for `COCc1cc(OCCCCCCc2cccc(OCCCC(=O)O)c2CCC(=O)O)cc(-c2ccc(F)cc2)c1` [Example 10, 4-{2-(2-Carboxy-ethyl)-3-[6-(4′-fluoro-5-methoxymethyl-biphenyl-3-yloxy)-hexyl]-phenoxy}-butyric acid], 2.52 nM.
Take `COCc1cc(OCCCCCCc2cccc(OCCCC(=O)O)c2CCC(=O)O)cc(-c2ccc(Cl)cc2)c1` [Example 11, 4-{2-(2-Carboxy-ethyl)-3-[6-(4′-chloro-5-methoxymethyl-biphenyl-3-yloxy)-hexyl]-phenoxy}-butyric acid]: the IC50 was 1.37 nM.
For `COCc1cc(OCCCCCCc2cccc(OCCCC(=O)O)c2CCC(=O)O)cc(-c2ccc3c(c2)OCCO3)c1` [Example 12, 4-(2-(2-Carboxy-ethyl)-3-{6-[3-(2,3-dihydro-benzo[1,4]dioxin-6-yl)-5-methoxymethyl-phenoxy]-hexyl}-phenoxy)-butyric acid] the value was 1.38 nM; for `COCc1cc(OCCCCCCc2cccc(OCCCC(=O)O)c2CCC(=O)O)cc(-c2cscc2C)c1` [Example 13, 4-(2-(2-Carboxy-ethyl)-3-{6-[3-methoxymethyl-5-(4-methyl-thiophen-3-yl)-phenoxy]-hexyl}-phenoxy)-butyric acid], 140 nM; for `COCc1cc(OCCCCCCc2cccc(OCCCC(=O)O)c2CCC(=O)O)cc(-c2cccc(F)c2)c1` [Example 14, 4-{2-(2-Carboxy-ethyl)-3-[6-(3′-fluoro-5-methoxymethyl-biphenyl-3-yloxy)-hexyl]-phenoxy}-butyric acid], 1.47 nM.
As for `COCc1cc(OCCCCCCc2cccc(OCCCC(=O)O)c2CCC(=O)O)cc(-c2ccccc2F)c1` [Example 15, 4-{2-(2-Carboxy-ethyl)-3-[6-(2′-fluoro-5-methoxymethyl-biphenyl-3-yloxy)-hexyl]-phenoxy}-butyric acid], the figure is 5.98 nM; as for `COCc1cc(OCCCCCCc2cccc(OCCCC(=O)O)c2CCC(=O)O)cc(-c2cc(F)cc(F)c2)c1` [Example 16, 4-{2-(2-Carboxy-ethyl)-3-[6-(3′,5′-difluoro-5-methoxymethyl-biphenyl-3-yloxy)-hexyl]-phenoxy}-butyric acid], 14.8 nM; as for `COCc1cc(OCCCCCCc2cccc(OCCCC(=O)O)c2CCC(=O)O)cc(-c2ccc(C(F)(F)F)cc2)c1` [Example 17, 4-{2-(2-Carboxy-ethyl)-3-[6-(5-methoxymethyl-4′-trifluoromethyl-biphenyl-3-yloxy)-hexyl]-phenoxy}-butyric acid], 1.62 nM.
As for `COCc1cc(OCCCCCCc2cccc(OCCCC(=O)O)c2CCC(=O)O)cc(-c2cccc(Cl)c2)c1` [Example 18, 4-{2-(2-Carboxy-ethyl)-3-[6-(3′-chloro-5-methoxymethyl-biphenyl-3-yloxy)-hexyl]-phenoxy}-butyric acid], the figure is 13.4 nM; as for `COCc1cc(OCCCCCCc2cccc(OCCCC(=O)O)c2CCC(=O)O)cc(-c2cccc(OC)c2)c1` [Example 19, 4-{2-(2-Carboxy-ethyl)-3-[6-(3′-methoxy-5-methoxymethyl-biphenyl-3-yloxy)-hexyl]-phenoxy}-butyric acid], 9.44 nM.
Take `COCc1cc(OCCCCCCc2cccc(OCCCC(=O)O)c2CCC(=O)O)cc(-c2ccc(OC(F)(F)F)cc2)c1` [Example 20, 4-{2-(2-Carboxy-ethyl)-3-[6-(5-methoxymethyl-4′-trifluoromethoxy-biphenyl-3-yloxy)-hexyl]-phenoxy}-butyric acid]: the IC50 turned out to be 15.1 nM.
For `COCc1cc(OCCCCCCc2cccc(OCCCC(=O)O)c2CCC(=O)O)cc(-c2ccc(F)c(F)c2)c1` [Example 21, 4-[2-(2-Carboxy-ethyl)-3-[6-(3′,4′-difluoro-5-methoxymethyl-biphenyl-3-yloxy)-hexyl]-phenoxy]-butyric acid] the value was 2.66 nM.
For `COCc1cc(OCCCCCCc2cccc(OCCCC(=O)O)c2CCC(=O)O)cc(-c2cncnc2)c1` [Example 22, 4-[2-(2-Carboxy-ethyl)-3-[6-(3-methoxymethyl-5-pyrimidin-5-yl-phenoxy)-hexyl]-phenoxy]-butyric acid] the value was 339 nM; for `COCc1cc(OCCCCCCc2cccc(OCCCC(=O)O)c2CCC(=O)O)cc(-c2ccc3[nH]ccc3c2)c1` [Example 23, 4-[2-(2-Carboxy-ethyl)-3-{6-[3-(1H-indol-5-yl)-5-methoxymethyl-phenoxy]-hexyl}-phenoxy]-butyric acid], 30.2 nM.

The values above are taken from patent publication US8088936B2, “Leukotriene B4 inhibitors” (Hoffman-La Roche Inc., priority 2009, dated 2012).
